Measured values taken from patent publication US6525001B1, “Substituted pyrimidine and pyridine herbicides” (Mid-American Commercialization Corporation, priority 1997, dated 2003).

Key:
Assay type in all cases: in vivo
[1] = test system: common ragweed (Ambrosia elatior); test: Test E pre-/postemergence/post directed
Procedure, shortened: (§1)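 Three application modes in greenhouse pots: preemergence soil spray, postemergence foliar spray at two to four leaves, and post-directed spray to soil and plant base. Ratings of 0–100 injury, assigned visually against untreated controls 13 to 21 days later.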

[2] = test system: itchgrass (Rottboellia exaltata); test: Test E pre-/postemergence/post directed
Procedure, shortened: as §1

[3] = test system: alexandergrass (Brachiaria plantaginea); test: Test E pre-/postemergence/post directed
Procedure, shortened: as §1

[4] = test system: large crabgrass (Digitaria sanguinalis); test: Test E pre-/postemergence/post directed
Procedure, shortened: as §1

[5] = test system: bermudagrass (Cynodon dactylon); test: Test E pre-/postemergence/post directed; details: PREEMERGENCE
Procedure, shortened: as §1

[6] = test system: johnson grass (Sorghum halepense); test: Test E pre-/postemergence/post directed
Procedure, shortened: as §1

[7] = test system: Spanishneedles (Bidens bipinnata); test: Test E pre-/postemergence/post directed
Procedure, shortened: as §1

[8] = test system: sandbur (Cenchrus echinatus); test: Test E pre-/postemergence/post directed; details: PREEMERGENCE
Procedure, shortened: as §1

[9] = test system: large crabgrass (Digitaria sanguinalis); test: Test C; design: key: 0 was no effect; 100 was complete control; details: PREEMERGENCE
[10] = test system: arrowleaf sida (Sida rhombifolia); test: Test C; design: key: 0 was no effect; 100 was complete control; details: PREEMERGENCE
[11] = test system: cocklebur (Xanthium strumarium); test: Test C; design: key: 0 was no effect; 100 was complete control; details: PREEMERGENCE
[12] = test system: redroot pigweed (Amaranthus retroflexus); test: Test C; design: key: 0 was no effect; 100 was complete control; details: PREEMERGENCE
[13] = test system: barnyardgrass (Echinochloa crus-galli); test: Test C; design: key: 0 was no effect; 100 was complete control; details: PREEMERGENCE
[14] = test system: cotton (Gossypium hirsutum); test: Test C; design: key: 0 was no effect; 100 was complete control; details: PREEMERGENCE
[15] = test system: hairy beggarticks (Bidens pilosa); test: Test C; design: key: 0 was no effect; 100 was complete control; details: PREEMERGENCE
[16] = test system: wild poinsettia (Euphorbia heterophylla); test: Test C; design: key: 0 was no effect; 100 was complete control; details: PREEMERGENCE
[17] = test system: giant foxtail (Setaria faberii); test: Test C; design: key: 0 was no effect; 100 was complete control; details: PREEMERGENCE
[18] = test system: eastern black nightshade (Solanum ptycanthum); test: Test C; design: key: 0 was no effect; 100 was complete control; details: PREEMERGENCE
[19] = test system: velvetleaf (Abutilon theophrasti); test: Test C; design: key: 0 was no effect; 100 was complete control; details: PREEMERGENCE
[20] = test system: ivyleaf morningglory (Ipomoea hederacea); test: Test C; details: PREEMERGENCE
[21] = test system: surinam grass (Brachiaria decumbens); test: Test E pre-/postemergence/post directed; details: PREEMERGENCE
Procedure, shortened: as §1

Structure (SMILES): Cc1cnc(-n2cnc(C(F)(F)F)c2)nc1Cc1cccc(C(F)(F)F)c1 [Compound 44]
- Plant response rating, Com. ragweed ([1]; POSTEMERGENCE, Rate 125 g/ha): 10
- Plant response rating, Com. ragweed ([1]; POSTEMERGENCE, Rate 250 g/ha): 20
- Plant response rating, Com. ragweed ([1]; PREEMERGENCE, Rate 32 g/ha): 40
- Plant response rating, Com. ragweed ([1]; PREEMERGENCE, Rate 64 g/ha): 85
- Plant response rating, Com. ragweed ([1]; PREEMERGENCE, Rate 125 g/ha): 98
- Plant response rating, Itchgrass ([2]; POSTEMERGENCE, Rate 125 g/ha): 5
- Plant response rating, Itchgrass ([2]; POSTEMERGENCE, Rate 250 g/ha): 10
- Plant response rating, Itchgrass ([2]; PREEMERGENCE, Rate 125 g/ha): 30
- Plant response rating, Itchgrass ([2]; PREEMERGENCE, Rate 250 g/ha): 40
- Plant response rating, Alexandergrass ([3]; POSTEMERGENCE, Rate 125 g/ha): 10
- Plant response rating, Alexandergrass ([3]; POSTEMERGENCE, Rate 250 g/ha): 10
- Plant response rating, Alexandergrass ([3]; PREEMERGENCE, Rate 64 g/ha): 40
- Plant response rating, Alexandergrass ([3]; PREEMERGENCE, Rate 125 g/ha): 40
- Plant response rating, Alexandergrass ([3]; PREEMERGENCE, Rate 250 g/ha): 50
- Plant response rating, Large crabgrass ([4]; POSTEMERGENCE, Rate 125 g/ha): 10
- Plant response rating, Large crabgrass ([4]; POSTEMERGENCE, Rate 250 g/ha): 10
- Plant response rating, Large crabgrass ([4]; PREEMERGENCE, Rate 64 g/ha): 60
- Plant response rating, Large crabgrass ([4]; PREEMERGENCE, Rate 125 g/ha): 70
- Plant response rating, Large crabgrass ([4]; PREEMERGENCE, Rate 250 g/ha): 60
- Plant response rating, Bermudagrass ([5]; Rate 32 g/ha): 30
- Plant response rating, Bermudagrass ([5]; Rate 64 g/ha): 80
- Plant response rating, Bermudagrass ([5]; Rate 125 g/ha): 98
- Plant response rating, Johnsongrass ([6]; POSTEMERGENCE, Rate 125 g/ha): 5
- Plant response rating, Johnsongrass ([6]; POSTEMERGENCE, Rate 250 g/ha): 10
- Plant response rating, Johnsongrass ([6]; PREEMERGENCE, Rate 32 g/ha): 30
- Plant response rating, Johnsongrass ([6]; PREEMERGENCE, Rate 125 g/ha): 60
- Plant response rating, Johnsongrass ([6]; PREEMERGENCE, Rate 250 g/ha): 75
- Plant response rating, Spanishneedles ([7]; POSTEMERGENCE, Rate 125 g/ha): 10
- Plant response rating, Spanishneedles ([7]; POSTEMERGENCE, Rate 250 g/ha): 10
- Plant response rating, Spanishneedles ([7]; PREEMERGENCE, Rate 32 g/ha): 20
- Plant response rating, Spanishneedles ([7]; PREEMERGENCE, Rate 64 g/ha): 60
- Plant response rating, Spanishneedles ([7]; PREEMERGENCE, Rate 125 g/ha): 70
- Plant response rating, Spanishneedles ([7]; PREEMERGENCE, Rate 250 g/ha): 98
- Plant response rating, Sandbur ([8]; Rate 64 g/ha): 60
- Plant response rating, Sandbur ([8]; Rate 125 g/ha): 70
- Plant response rating, Sandbur ([8]; Rate 250 g/ha): 80

Structure (SMILES): Cc1cnc(-n2ccc(C(F)(F)F)n2)nc1C(=O)c1cccc(OC(F)(F)F)c1 [Compound 66]
- Plant response rating, Large crabgrass ([9]; Rate 35 g/ha): 80
- Plant response rating, Large crabgrass ([9]; Rate 70 g/ha): 100
- Plant response rating, Large crabgrass ([9]; Rate 140 g/ha): 100
- Plant response rating, Arrowleaf sida ([10]; Rate 35 g/ha): 5
- Plant response rating, Arrowleaf sida ([10]; Rate 70 g/ha): 5
- Plant response rating, Arrowleaf sida ([10]; Rate 140 g/ha): 100
- Plant response rating, Cocklebur ([11]; Rate 35 g/ha): 0
- Plant response rating, Cocklebur ([11]; Rate 70 g/ha): 0
- Plant response rating, Cocklebur ([11]; Rate 140 g/ha): 0
- Plant response rating, Redroot pigweed ([12]; Rate 35 g/ha): 100
- Plant response rating, Redroot pigweed ([12]; Rate 70 g/ha): 100
- Plant response rating, Redroot pigweed ([12]; Rate 140 g/ha): 100
- Plant response rating, Barnyardgrass ([13]; Rate 35 g/ha): 0
- Plant response rating, Barnyardgrass ([13]; Rate 70 g/ha): 5
- Plant response rating, Barnyardgrass ([13]; Rate 140 g/ha): 5
- Plant response rating, Cotton ([14]; Rate 35 g/ha): 0
- Plant response rating, Cotton ([14]; Rate 70 g/ha): 0
- Plant response rating, Cotton ([14]; Rate 140 g/ha): 0
- Plant response rating, H. beggarticks ([15]; Rate 35 g/ha): 0
- Plant response rating, H. beggarticks ([15]; Rate 70 g/ha): 0
- Plant response rating, H. beggarticks ([15]; Rate 140 g/ha): 0
- Plant response rating, Wild poinsettia ([16]; Rate 35 g/ha): 0
- Plant response rating, Wild poinsettia ([16]; Rate 70 g/ha): 0
- Plant response rating, Wild poinsettia ([16]; Rate 140 g/ha): 0
- Plant response rating, Giant foxtail ([17]; Rate 35 g/ha): 0
- Plant response rating, Giant foxtail ([17]; Rate 70 g/ha): 0
- Plant response rating, Giant foxtail ([17]; Rate 140 g/ha): 0
- Plant response rating, E. blacknightsh ([18]; Rate 35 g/ha): 0
- Plant response rating, E. blacknightsh ([18]; Rate 70 g/ha): 10
- Plant response rating, E. blacknightsh ([18]; Rate 140 g/ha): 30
- Plant response rating, Velvetleaf ([19]; Rate 35 g/ha): 0
- Plant response rating, Velvetleaf ([19]; Rate 70 g/ha): 0
- Plant response rating, Velvetleaf ([19]; Rate 140 g/ha): 0
- Plant response rating, I. morningglory ([20]; Rate 35 g/ha): 5
- Plant response rating, I. morningglory ([20]; Rate 70 g/ha): 10
- Plant response rating, I. morningglory ([20]; Rate 140 g/ha): 10

Structure (SMILES): Cc1cnc(-n2cnc(C(F)(F)F)n2)nc1C(=O)c1cccc(C(F)(F)F)c1 [Compound 67]
- Plant response rating, Com. ragweed ([1]; PREEMERGENCE, Rate 32 g/ha): 90
- Plant response rating, Com. ragweed ([1]; PREEMERGENCE, Rate 64 g/ha): 95
- Plant response rating, Itchgrass ([2]; PREEMERGENCE, Rate 32 g/ha): 40
- Plant response rating, Itchgrass ([2]; PREEMERGENCE, Rate 64 g/ha): 40
- Plant response rating, Itchgrass ([2]; PREEMERGENCE, Rate 125 g/ha): 65
- Plant response rating, Itchgrass ([2]; PREEMERGENCE, Rate 250 g/ha): 80
- Plant response rating, Alexandergrass ([3]; PREEMERGENCE, Rate 32 g/ha): 25
- Plant response rating, Alexandergrass ([3]; PREEMERGENCE, Rate 64 g/ha): 40
- Plant response rating, Alexandergrass ([3]; PREEMERGENCE, Rate 125 g/ha): 70
- Plant response rating, Alexandergrass ([3]; PREEMERGENCE, Rate 250 g/ha): 95
- Plant response rating, Large crabgrass ([4]; PREEMERGENCE, Rate 32 g/ha): 90
- Plant response rating, Large crabgrass ([4]; PREEMERGENCE, Rate 64 g/ha): 95
- Plant response rating, Large crabgrass ([4]; PREEMERGENCE, Rate 125 g/ha): 98
- Plant response rating, Surinam grass ([21]; Rate 32 g/ha): 35
- Plant response rating, Surinam grass ([21]; Rate 64 g/ha): 75
- Plant response rating, Surinam grass ([21]; Rate 125 g/ha): 75
- Plant response rating, Bermudagrass ([5]; Rate 32 g/ha): 70
- Plant response rating, Bermudagrass ([5]; Rate 64 g/ha): 90
- Plant response rating, Bermudagrass ([5]; Rate 125 g/ha): 90
- Plant response rating, Johnsongrass ([6]; PREEMERGENCE, Rate 32 g/ha): 35
- Plant response rating, Johnsongrass ([6]; PREEMERGENCE, Rate 64 g/ha): 35
- Plant response rating, Johnsongrass ([6]; PREEMERGENCE, Rate 125 g/ha): 50
- Plant response rating, Johnsongrass ([6]; PREEMERGENCE, Rate 250 g/ha): 80
- Plant response rating, Spanishneedles ([7]; PREEMERGENCE, Rate 125 g/ha): 50
- Plant response rating, Spanishneedles ([7]; PREEMERGENCE, Rate 250 g/ha): 50
- Plant response rating, Sandbur ([8]; Rate 32 g/ha): 60
- Plant response rating, Sandbur ([8]; Rate 64 g/ha): 60
- Plant response rating, Sandbur ([8]; Rate 125 g/ha): 65
- Plant response rating, Sandbur ([8]; Rate 250 g/ha): 75
